According to patent publication US12357596B2, “Compounds for prevention and treatment of obesity and related disorders” (ABREXA PHARMACEUTICALS, INC., priority 2019, dated 2025):
Marks after values point to notes of the source that are not given here.

Key:
[1] = Toxicokinetics in satellite animals of the 28-day oral gavage study (plasma, Day 1); assay type: in vivo, Sprague-Dawley rats; settings: Sprague-Dawley, rat, Day 1, 30 mg/kg/day (NOAEL), for information only (ISR failed)
Procedure: J147 or vehicle was administered once daily to Sprague-Dawley rats via oral gavage for 28 consecutive days at a daily dose of 0, 30, 100 or 300 mg/kg. J174 was prepared in a vehicle formulation comprising 5% ethanol, 5% DMSO and 90% corn oil (v/v/v). Certified rodent diet and water was available ad libitum. Groups 1-4 contained 10 animals/sex/group. Groups 1 (control) and 4 (high dose) also included an additional 5 animals/sex/group for use as recovery animals. The recovery animals were maintained on study for a 14-day postdosing recovery period. Animals in Groups 1-4 were monitored for morbidity and mortality, clinical signs, detailed clinical observations, body weight, food consumption, ophthalmologic parameters, neurobehavioral assessment consisting of a Functional Observational Battery (FOB) and a motor activity test, hematology, coagulation, serum chemistry, and urinalysis parameters. Postmortem assessment included necropsy, measurement of selected organ weights, and microscopic evaluation of a standard set of tissues. Plasma samples for bioanalysis were collected on Days 1 and 28 from satellite toxicokinetic animals in Groups 5 through 8. Animals in these groups were euthanized following the last blood sampling and carcasses were discarded without examination. The study protocol is shown below in Table 1.
Additionally, analysis of Day 28 samples also occurred outside the known long-term stability (LTS) range of the validated bioanalytical method. Thus, the bioanalytical and toxicokinetic results for J147 are considered to be for information only. The bioanalytical and toxicokinetic analysis results should also be considered in light of the fact that Day 28 samples were analyzed outside of their LTS.
Given that there was clear evidence of toxicity at the mid and high dose groups, the Study Director believes that this study met the objective of examining the toxicity profile of J147. […] Under the conditions of this study, the no-observed-adverse-effect-level (NOAEL) for J147 was considered to be 30 mg/kg/day. […] Cmax and AUC0-last values should be considered in light of the caveats mentioned in the preceding paragraph. The lowest-observed-adverse-effect-level (LOAEL) is 100 mg/kg/day in both sexes based on test article-related decreases in body weight/body weight gain and food consumption, decreased activity, decreases in measures of red blood cell mass, decreased prothrombin time, decreased serum glucose and triglycerides, decreased thymus weights, and single cell necrosis of pancreatic acinar cells in males.

[2] = 28-Day Oral (Gavage) Toxicity Study in Beagle Dogs with a 14-Day Recovery Period at 0, 1, 10 and 30 mg/kg/day (body weight); assay type: in vivo
Procedure: (§1) J147 was administered once daily to beagle dogs via oral gavage for up to 28 days at a daily dose of 0, 1, 10 and 30 mg/kg. J174 was prepared in a vehicle formulation comprising 5% ethanol, 5% DMSO and 90% corn oil (v/v/v). Block Lab Diet (Certified Canine Diet #5007, PMI Nutrition International, Inc.) was offered via limited feedings, except during designated periods. The animals were offered food 2 hours postdose on each dosing day for 2 to 5 hours. Food was offered 2 to 5 hours/day during the acclimation period and during the recovery period. Tap water was available ad libitum via an automatic watering system. The study protocol is shown below in Table 10.

[3] = Oral gavage study up to 28 days at 0, 30, 100 and 300 mg/kg/day (body weight, food consumption); assay type: in vivo, beagle dogs
Procedure: as §1, with “J147 or vehicle” for “J147”, “30, 100” for “1, 10”, “300” for “30”, “post-dose” for “postdose”, “9.” for “10.”

[4] = female dogs, 30 mg/kg/day, Day 28
[5] = male dogs, 30 mg/kg/day, Day 28
[6] = dogs, all J147-treated groups (30, 100, 300 mg/kg/day), both sexes
[7] = female dogs, 100 mg/kg/day, Day 28
[8] = female dogs, 300 mg/kg/day, Day 21 versus the Day 28 control value
[9] = male dogs, 100 mg/kg/day, Day 28
[10] = male dogs, 300 mg/kg/day, Day 22 versus the Day 28 control value

Which results are given for `COc1cccc(/C=N/N(C(=O)C(F)(F)F)c2ccc(C)cc2C)c1` [J147]?
AUC(0-t) ([1]; female rats): 233 ng·h/mL; Cmax ([1]; female rats): 50.8 ng/mL; AUC(0-t) ([1]; male rats): 835 ng·h/mL; Cmax ([1]; male rats): 146 ng/mL; Conclusion on body weight ([2]; dogs, 28-day oral gavage): induces weight loss and inhibits weight gain; Body weight and food consumption finding ([2]; dogs, Groups 3 and 4, 10 mg/kg/day and 30 mg/kg/day): Body weight loss with lower food consumption; Weight lost compared to pre-test levels (up to) ([2]; dogs, males and females, 10 mg/kg/day): up to −9%; Body Weight, Mean ([2]; female dogs, 1 mg/kg/day, Day 3): 6.463 kg; Body Weight, Mean ([2]; female dogs, 1 mg/kg/day, Day 7): 6.513 kg; Body Weight, Mean ([2]; female dogs, 1 mg/kg/day, Day 10): 6.675 kg; Body Weight, Mean ([2]; female dogs, 1 mg/kg/day, Day 14): 6.688 kg; Body Weight, Mean ([2]; female dogs, 1 mg/kg/day, Day 17): 6.763 kg; Body Weight, Mean ([2]; female dogs, 1 mg/kg/day, Day 21): 6.788 kg; Body Weight, Mean ([2]; female dogs, 1 mg/kg/day, Day 24): 6.813 kg; Body Weight, Mean ([2]; female dogs, 1 mg/kg/day, Day 28): 6.813 kg; Body Weight, Mean ([2]; female dogs, 1 mg/kg/day, Day −1 (pre-dose)): 6.413 kg; Animals that lost weight ([2]; female dogs, 10 mg/kg/day): 4 of 4; Body Weight, Mean ([2]; female dogs, 10 mg/kg/day, Day 3): 6.363 kg; Body Weight, Mean ([2]; female dogs, 10 mg/kg/day, Day 7): 6.250 kg; Body Weight, Mean ([2]; female dogs, 10 mg/kg/day, Day 10): 6.275 kg; Body Weight, Mean ([2]; female dogs, 10 mg/kg/day, Day 14): 6.150 kg; Body Weight, Mean ([2]; female dogs, 10 mg/kg/day, Day 17): 6.163 kg; Body Weight, Mean ([2]; female dogs, 10 mg/kg/day, Day 21): 6.063 kg; Body Weight, Mean ([2]; female dogs, 10 mg/kg/day, Day 24): 6.038 kg; Body Weight, Mean ([2]; female dogs, 10 mg/kg/day, Day 28): 5.988 kg; Body Weight, Mean ([2]; female dogs, 10 mg/kg/day, Day −1 (pre-dose)): 6.325 kg; Animals that lost weight ([2]; female dogs, 30 mg/kg/day): 6 of 6; Weight lost, of pretest levels (up to) ([2]; female dogs, 30 mg/kg/day): ≤ −17%; Body Weight, Mean ([2]; female dogs, 30 mg/kg/day, Day 3): 6.308 kg; Body Weight, Mean ([2]; female dogs, 30 mg/kg/day, Day 7): 6.242 kg; Body Weight, Mean ([2]; female dogs, 30 mg/kg/day, Day 10): 6.192 kg; Body Weight, Mean ([2]; female dogs, 30 mg/kg/day, Day 14): 6.033 kg; Body Weight, Mean ([2]; female dogs, 30 mg/kg/day, Day 17): 5.858^a kg; Body Weight, Mean ([2]; female dogs, 30 mg/kg/day, Day 21): 5.700^b kg; Body Weight, Mean ([2]; female dogs, 30 mg/kg/day, Day 24): 5.575^b kg; Body Weight, Mean [2, 4]: 5.525^b kg; Body Weight, Mean ([2]; female dogs, 30 mg/kg/day, Day −1 (pre-dose)): 6.258 kg; Body Weight, Mean ([2]; male dogs, 1 mg/kg/day, Day 3): 7.850 kg; Body Weight, Mean ([2]; male dogs, 1 mg/kg/day, Day 7): 7.838 kg; Body Weight, Mean ([2]; male dogs, 1 mg/kg/day, Day 10): 8.000 kg; Body Weight, Mean ([2]; male dogs, 1 mg/kg/day, Day 14): 8.000 kg; Body Weight, Mean ([2]; male dogs, 1 mg/kg/day, Day 17): 8.075 kg; Body Weight, Mean ([2]; male dogs, 1 mg/kg/day, Day 21): 8.200 kg; Body Weight, Mean ([2]; male dogs, 1 mg/kg/day, Day 24): 8.325 kg; Body Weight, Mean ([2]; male dogs, 1 mg/kg/day, Day 28): 8.250 kg; Body Weight, Mean ([2]; male dogs, 1 mg/kg/day, Day −1 (pre-dose)): 7.813 kg; Animals that lost weight ([2]; male dogs, 10 mg/kg/day): 3 of 4; Body Weight, Mean ([2]; male dogs, 10 mg/kg/day, Day 3): 7.588 kg; Body Weight, Mean ([2]; male dogs, 10 mg/kg/day, Day 7): 7.675 kg; Body Weight, Mean ([2]; male dogs, 10 mg/kg/day, Day 10): 7.763 kg; Body Weight, Mean ([2]; male dogs, 10 mg/kg/day, Day 14): 7.625 kg; Body Weight, Mean ([2]; male dogs, 10 mg/kg/day, Day 17): 7.563 kg; Body Weight, Mean ([2]; male dogs, 10 mg/kg/day, Day 21): 7.663 kg; Body Weight, Mean ([2]; male dogs, 10 mg/kg/day, Day 24): 7.638 kg; Body Weight, Mean ([2]; male dogs, 10 mg/kg/day, Day 28): 7.500 kg; Body Weight, Mean ([2]; male dogs, 10 mg/kg/day, Day −1 (pre-dose)): 7.563 kg; Animals that lost weight ([2]; male dogs, 30 mg/kg/day): 5 of 6; Weight lost, of pretest levels (up to) ([2]; male dogs, 30 mg/kg/day): up to −12%; Body Weight, Mean ([2]; male dogs, 30 mg/kg/day, Day 3): 7.900 kg; Body Weight, Mean ([2]; male dogs, 30 mg/kg/day, Day 7): 7.933 kg; Body Weight, Mean ([2]; male dogs, 30 mg/kg/day, Day 10): 8.008 kg; Body Weight, Mean ([2]; male dogs, 30 mg/kg/day, Day 14): 7.967 kg; Body Weight, Mean ([2]; male dogs, 30 mg/kg/day, Day 17): 7.883 kg; Body Weight, Mean ([2]; male dogs, 30 mg/kg/day, Day 21): 7.800 kg; Body Weight, Mean ([2]; male dogs, 30 mg/kg/day, Day 24): 7.825 kg; Body Weight, Mean [2, 5]: 7.600 kg; Body Weight, Mean ([2]; male dogs, 30 mg/kg/day, Day −1 (pre-dose)): 7.908 kg; Body weight and body weight gain compared to the vehicle-treated control group [3, 6]: decreased; Food consumption compared to the vehicle-treated control group [3, 6]: decreased; Decrease of group mean body weight [3, 4]: 19%; Decrease of group mean food consumption [3, 4]: 45%; Decrease of group mean body weight [3, 7]: 21%; Decrease of group mean food consumption [3, 7]: 48%; Decrease of group mean body weight [3, 8]: 23%; Decrease of group mean food consumption [3, 8]: 38%; Decrease of group mean body weight [3, 5]: 23%; Decrease of group mean food consumption [3, 5]: 31%; Decrease of group mean body weight [3, 9]: 26%; Decrease of group mean food consumption [3, 9]: 39%; Decrease of group mean body weight [3, 10]: 18%; Decrease of group mean food consumption [3, 10]: 48%
